Reference: ChEMBL document CHEMBL5543172, “Novel Isoalantolactone-Based Derivatives as Potent NLRP3 Inflammasome Inhibitors: Design, Synthesis, and Biological Characterization” (J Med Chem, 2024)
Calls of active or inactive are those of the source. No cut-off for these calls is given here.

Legend:
[1] = Genotoxicity in mouse BMDM cells; format: toxicity, cell-based
[2] = target: Prostaglandin E2 receptor EP2 subtype (Homo sapiens) (UniProt P43116); assay: Inhibition of EP2 receptor (unknown origin) at 1 uM relative to control
[3] = target: Prostaglandin G/H synthase 2 (Homo sapiens) (UniProt P35354); assay: Inhibition of COX2 (unknown origin) at 1 uM relative to control
Sequence of Prostaglandin G/H synthase 2 (Homo sapiens) (P35354 whole entry): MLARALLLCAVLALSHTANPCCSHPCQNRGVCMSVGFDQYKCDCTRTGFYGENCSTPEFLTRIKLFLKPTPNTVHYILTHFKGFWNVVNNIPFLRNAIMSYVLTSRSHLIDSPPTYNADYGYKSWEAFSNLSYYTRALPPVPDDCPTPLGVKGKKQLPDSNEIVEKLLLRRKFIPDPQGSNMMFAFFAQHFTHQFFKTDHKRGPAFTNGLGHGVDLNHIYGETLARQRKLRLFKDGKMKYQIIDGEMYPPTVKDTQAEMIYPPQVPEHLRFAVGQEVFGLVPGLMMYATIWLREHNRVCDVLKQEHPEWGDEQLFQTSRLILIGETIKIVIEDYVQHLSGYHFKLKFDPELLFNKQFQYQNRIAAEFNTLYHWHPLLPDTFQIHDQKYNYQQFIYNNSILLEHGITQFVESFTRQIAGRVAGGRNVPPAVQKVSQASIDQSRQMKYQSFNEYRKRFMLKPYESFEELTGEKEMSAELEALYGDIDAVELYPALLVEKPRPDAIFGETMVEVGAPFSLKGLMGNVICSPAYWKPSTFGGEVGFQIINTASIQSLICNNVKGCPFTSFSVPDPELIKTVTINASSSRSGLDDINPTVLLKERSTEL

THP-1 [4] = assay: Cytotoxicity against human THP-1 cells at 0.25 to 2 uM measured after 24 hrs by CCK-8 method; format: functional, cell-based; details: dose 0.25-2 µM
THP-1 [5] = assay: (§1) Inhibition of pyroptosis in LPS/nigericin induced PMA-differentiated human THP-1 cells assessed as reduction in red fluorescence production preincubated with LPS for 3 hrs followed by compound addition for 40 mins and further stimulated with nigericin for 40 mins by PI staining based inverted microscopy based analysis; format: functional, cell-based; details: dose 0.25-1 µM, time 80.0 min
Cytochrome P450 2C9 = Cytochrome P450 2C9 (Homo sapiens, UniProt P11712); assay: Inhibition of CYP2C9 in human liver microsomes using tolbutamide as substrate preincubated for 5 mins followed by NADPH addition and measured after 30 to 60 mins by LC-MS/MS analysis; format: ADME, Microsome
Sequence of Cytochrome P450 2C9 (P11712 whole entry): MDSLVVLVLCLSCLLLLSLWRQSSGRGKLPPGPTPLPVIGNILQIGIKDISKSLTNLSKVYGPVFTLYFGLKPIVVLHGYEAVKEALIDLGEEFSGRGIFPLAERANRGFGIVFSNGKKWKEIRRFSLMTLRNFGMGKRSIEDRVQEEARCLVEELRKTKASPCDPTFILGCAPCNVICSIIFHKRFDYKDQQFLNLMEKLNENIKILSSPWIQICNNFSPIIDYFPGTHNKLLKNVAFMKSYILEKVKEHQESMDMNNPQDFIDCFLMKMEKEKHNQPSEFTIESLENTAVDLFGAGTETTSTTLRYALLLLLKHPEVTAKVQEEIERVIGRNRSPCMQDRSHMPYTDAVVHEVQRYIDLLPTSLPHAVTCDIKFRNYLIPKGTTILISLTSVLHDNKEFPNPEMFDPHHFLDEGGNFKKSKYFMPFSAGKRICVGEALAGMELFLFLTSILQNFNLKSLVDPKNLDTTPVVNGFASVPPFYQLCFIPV

Mus musculus [6] = assay: Anti-colitis activity against DSS-induced ulcerative colitis C57BL/6 mouse model assessed as alleviation of grave ulcer formation in colon at 15 to 30 mg/kg, ip administered daily and measured after 10 days by H and E staining based analysis; format: functional, organism-based; details: dose 15-30 mg/kg, time 10.0 day
[7] = target: 3',5'-cyclic-AMP phosphodiesterase 4D (Homo sapiens) (UniProt Q08499); assay: Inhibition of PDE4D2 (unknown origin) at 1 uM relative to control
Sequence of 3',5'-cyclic-AMP phosphodiesterase 4D (Homo sapiens) (Q08499 whole entry): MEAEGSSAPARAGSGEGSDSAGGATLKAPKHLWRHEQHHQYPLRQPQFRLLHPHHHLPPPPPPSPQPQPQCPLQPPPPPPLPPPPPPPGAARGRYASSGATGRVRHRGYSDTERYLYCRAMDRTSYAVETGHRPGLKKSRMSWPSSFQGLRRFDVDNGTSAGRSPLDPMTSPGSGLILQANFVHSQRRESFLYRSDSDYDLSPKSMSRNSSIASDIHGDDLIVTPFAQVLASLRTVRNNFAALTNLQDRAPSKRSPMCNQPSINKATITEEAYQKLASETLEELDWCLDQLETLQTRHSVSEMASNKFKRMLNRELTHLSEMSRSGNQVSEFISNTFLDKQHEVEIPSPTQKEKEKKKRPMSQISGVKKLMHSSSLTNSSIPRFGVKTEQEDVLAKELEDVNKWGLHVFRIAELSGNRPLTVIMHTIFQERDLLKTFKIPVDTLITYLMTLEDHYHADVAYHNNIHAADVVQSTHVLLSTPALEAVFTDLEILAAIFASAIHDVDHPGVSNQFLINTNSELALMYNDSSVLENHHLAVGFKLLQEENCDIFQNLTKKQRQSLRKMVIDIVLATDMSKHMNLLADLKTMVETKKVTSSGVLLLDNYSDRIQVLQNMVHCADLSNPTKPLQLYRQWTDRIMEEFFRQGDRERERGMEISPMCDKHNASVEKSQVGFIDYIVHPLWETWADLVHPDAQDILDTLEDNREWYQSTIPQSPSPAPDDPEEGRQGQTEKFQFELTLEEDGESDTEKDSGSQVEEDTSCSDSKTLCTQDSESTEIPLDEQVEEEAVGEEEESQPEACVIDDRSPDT

[8] = target: P2X purinoceptor 3 (Homo sapiens) (UniProt P56373); assay: Inhibition of P2X3 (unknown origin) at 1 uM relative to control
Sequence of P2X purinoceptor 3 (Homo sapiens) (P56373 whole entry): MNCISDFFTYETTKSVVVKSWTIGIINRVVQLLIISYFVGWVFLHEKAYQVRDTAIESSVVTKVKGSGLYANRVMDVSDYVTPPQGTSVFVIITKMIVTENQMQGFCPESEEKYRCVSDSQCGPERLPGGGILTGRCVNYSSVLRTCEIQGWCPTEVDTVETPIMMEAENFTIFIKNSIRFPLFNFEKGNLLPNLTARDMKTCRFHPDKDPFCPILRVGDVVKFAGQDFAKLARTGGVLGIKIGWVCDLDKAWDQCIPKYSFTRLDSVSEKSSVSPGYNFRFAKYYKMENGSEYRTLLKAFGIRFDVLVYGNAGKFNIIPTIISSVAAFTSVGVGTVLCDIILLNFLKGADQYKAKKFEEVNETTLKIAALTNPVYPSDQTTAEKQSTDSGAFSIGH

[9] = target: Alpha-1A adrenergic receptor (Homo sapiens) (UniProt P35348); assay: Activation of alpha 1A adrenergic receptor (unknown origin) at 1 uM relative to control
Mus musculus [10] = assay: Anti-colitis activity against DSS-induced ulcerative colitis C57BL/6 mouse model assessed as alleviation of mucosal damage in colon at 15 to 30 mg/kg, ip administered daily and measured after 10 days by H and E staining based analysis; format: functional, organism-based; details: dose 15-30 mg/kg, time 10.0 day
[11] = target: P2X purinoceptor 3 (Homo sapiens) (UniProt P56373); assay: Activation of P2X3 (unknown origin) at 1 uM relative to control
[12] = Metabolic stability in human liver microsomes assessed as half life preincubated for 5 mins followed by NADPH addition and measured upto 60 mins by LC-MS/MS analysis; format: ADME, Microsome; details: time < 65 min
[13] = target: Androgen receptor (Homo sapiens) (UniProt P10275); assay: Activation of Androgen receptor (unknown origin) at 1 uM relative to control
Sequence of Androgen receptor (Homo sapiens) (P10275 whole entry): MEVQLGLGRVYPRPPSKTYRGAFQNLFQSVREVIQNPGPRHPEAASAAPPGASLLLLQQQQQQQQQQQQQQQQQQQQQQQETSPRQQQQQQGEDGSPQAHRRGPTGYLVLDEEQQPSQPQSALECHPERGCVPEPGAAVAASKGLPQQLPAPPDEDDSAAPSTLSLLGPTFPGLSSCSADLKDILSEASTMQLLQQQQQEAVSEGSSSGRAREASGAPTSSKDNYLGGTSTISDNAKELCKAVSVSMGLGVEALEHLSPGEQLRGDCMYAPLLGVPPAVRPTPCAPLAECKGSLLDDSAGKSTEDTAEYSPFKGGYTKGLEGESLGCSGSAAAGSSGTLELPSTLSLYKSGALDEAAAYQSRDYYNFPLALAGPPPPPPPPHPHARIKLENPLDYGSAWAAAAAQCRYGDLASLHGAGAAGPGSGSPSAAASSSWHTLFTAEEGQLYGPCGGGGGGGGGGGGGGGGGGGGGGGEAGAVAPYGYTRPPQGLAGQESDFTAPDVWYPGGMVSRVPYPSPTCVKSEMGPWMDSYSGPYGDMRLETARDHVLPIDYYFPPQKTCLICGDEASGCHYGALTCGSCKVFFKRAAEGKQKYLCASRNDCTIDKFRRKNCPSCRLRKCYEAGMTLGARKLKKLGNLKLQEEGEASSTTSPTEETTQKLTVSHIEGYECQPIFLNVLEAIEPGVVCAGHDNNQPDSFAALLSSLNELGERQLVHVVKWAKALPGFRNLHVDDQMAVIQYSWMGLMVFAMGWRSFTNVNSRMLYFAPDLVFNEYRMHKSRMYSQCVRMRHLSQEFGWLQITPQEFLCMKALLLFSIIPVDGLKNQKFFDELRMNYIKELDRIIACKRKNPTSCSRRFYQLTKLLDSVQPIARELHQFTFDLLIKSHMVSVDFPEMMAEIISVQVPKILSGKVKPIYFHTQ

BMDM [14] = assay: as §1, with “[…]” for “human THP-1”; format: functional, cell-based; details: dose 0.25-1 µM, time 80.0 min
[15] = AUC (0 to t) in male C57BL/6 mouse at 30 mg/kg, ip measured upto 1440 mins by LC-MS/MS analysis; format: ADME, organism-based; details: in vivo
[16] = target: Adenosine receptor A2a (Homo sapiens) (UniProt P29274); assay: Inhibition of adenosine A2A receptor (unknown origin) at 1 uM relative to control
Sequence of Adenosine receptor A2a (Homo sapiens) (P29274 whole entry): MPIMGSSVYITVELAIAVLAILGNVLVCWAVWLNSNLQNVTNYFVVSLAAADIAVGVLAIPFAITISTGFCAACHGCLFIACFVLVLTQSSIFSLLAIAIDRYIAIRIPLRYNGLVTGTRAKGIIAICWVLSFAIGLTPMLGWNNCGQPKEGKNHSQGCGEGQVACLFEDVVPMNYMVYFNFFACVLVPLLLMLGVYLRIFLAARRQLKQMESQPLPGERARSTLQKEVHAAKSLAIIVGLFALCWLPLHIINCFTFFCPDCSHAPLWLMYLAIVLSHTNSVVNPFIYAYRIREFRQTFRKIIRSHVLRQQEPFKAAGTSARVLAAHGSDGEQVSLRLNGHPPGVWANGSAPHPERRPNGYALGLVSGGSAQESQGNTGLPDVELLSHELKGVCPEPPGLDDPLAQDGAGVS

HEK293T [17] = assay: Inhibition of HA-NLRP3 C279A mutant/FLAG tagged NEK7 interaction (unknown origin) transfected in HEK293T cells at 1 uM incubated for 24 hrs by Western blot analysis; format: cell-based; details: Homo sapiens
[18] = target: Cannabinoid receptor 2 (Homo sapiens) (UniProt P34972); assay: Inhibition of CB2 receptor (unknown origin) at 1 uM relative to control
Sequence of Cannabinoid receptor 2 (Homo sapiens) (P34972 whole entry): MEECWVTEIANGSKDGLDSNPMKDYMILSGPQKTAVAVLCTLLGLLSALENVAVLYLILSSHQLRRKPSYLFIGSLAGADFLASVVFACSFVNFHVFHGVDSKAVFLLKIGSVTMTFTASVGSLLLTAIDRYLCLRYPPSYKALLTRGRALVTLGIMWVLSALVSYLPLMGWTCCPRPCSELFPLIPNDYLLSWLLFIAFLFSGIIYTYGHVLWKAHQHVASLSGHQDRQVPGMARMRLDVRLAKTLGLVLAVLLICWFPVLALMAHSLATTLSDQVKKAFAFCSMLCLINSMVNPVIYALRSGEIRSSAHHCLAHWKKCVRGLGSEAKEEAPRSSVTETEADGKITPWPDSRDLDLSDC

[19] = target: Prostaglandin G/H synthase 2 (Homo sapiens) (UniProt P35354); assay: Activation of COX2 (unknown origin) at 1 uM relative to control
BMDM [20] = assay: Inhibition of pyroptosis in LPS/nigericin induced […] cells assessed as reduction in […] at […] preincubated with LPS for 3 hrs followed by compound addition for 40 mins and further stimulated with nigericin for 40 mins by LDH assay; format: functional, cell-based; details: dose lower 0.25 µM, time 80.0 min
[21] = target: NACHT, LRR and PYD domains-containing protein 3 (Mus musculus) (UniProt Q8R4B8); assay: Inhibition of NLRP3 inflammasome activation in LPS/Nigericin induced mouse BMDM cells assessed as effect on ASC expression at 0.25 to 1 uM preincubated with LPS for 3 hrs followed by compound addition for 40 mins and further stimulated with nigericin for 40 mins by Western blot analysis; format: cell-based; details: dose 0.25-1 µM, time 80.0 min
[22] = Drug distribution in C57BL/6 mouse plasma at 30 mg/kg, ip measured after 8 hrs by LC-MS/MS analysis; format: ADME, organism-based
Cytochrome P450 1A2 = Cytochrome P450 1A2 (Homo sapiens, UniProt P05177); assay: Inhibition of CYP1A2 in human liver microsomes using phenacetin as substrate preincubated for 5 mins followed by NADPH addition and measured after 30 to 60 mins by LC-MS/MS analysis; format: ADME, Microsome
Sequence of Cytochrome P450 1A2 (P05177 whole entry): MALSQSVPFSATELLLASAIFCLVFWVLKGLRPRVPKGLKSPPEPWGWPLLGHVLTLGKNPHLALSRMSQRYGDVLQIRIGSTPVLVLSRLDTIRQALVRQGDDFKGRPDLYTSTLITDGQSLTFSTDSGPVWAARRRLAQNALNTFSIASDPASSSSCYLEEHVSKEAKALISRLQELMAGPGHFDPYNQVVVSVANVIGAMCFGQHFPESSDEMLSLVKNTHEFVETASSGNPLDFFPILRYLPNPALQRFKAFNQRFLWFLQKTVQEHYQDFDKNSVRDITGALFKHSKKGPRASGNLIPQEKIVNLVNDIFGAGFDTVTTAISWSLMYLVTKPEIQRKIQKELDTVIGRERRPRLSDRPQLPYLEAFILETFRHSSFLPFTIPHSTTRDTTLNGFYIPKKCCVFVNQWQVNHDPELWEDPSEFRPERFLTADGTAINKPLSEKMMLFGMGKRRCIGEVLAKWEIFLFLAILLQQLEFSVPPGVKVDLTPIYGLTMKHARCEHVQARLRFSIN

[23] = target: Voltage-gated inwardly rectifying potassium channel KCNH2 (Homo sapiens, UniProt Q12809); assay: Inhibition of human ERG expressed in HEK293 cells; format: toxicity, cell-based
[24] = Drug distribution in C57BL/6 mouse colon at 30 mg/kg, ip measured after 2 hrs by LC-MS/MS analysis; format: ADME, organism-based; details: read-out: Drug uptake
THP-1 [25] = assay: Binding affinity to NLRP3deltaLRR mutant in PMA- differentiated human THP-1 cells assessed as increase in thermal stability of protein at 1 uM pretreated with LPS for 3 hrs followed by compound addition at 45 to 63 degC for 2 mins by CETSA analysis; format: cell-based
Mus musculus [26] = assay: Anti-colitis activity against DSS-induced ulcerative colitis C57BL/6 mouse model assessed as alleviation of goblet cell depletion at 15 to 30 mg/kg, ip administered daily and measured after 10 days by H and E staining based analysis; format: functional, organism-based; details: dose 15-30 mg/kg, time 10.0 day
Cytochrome P450 2D6 = Cytochrome P450 2D6 (Homo sapiens, UniProt P10635); assay: Inhibition of CYP2D6 in human liver microsomes using dextromethorphan as substrate preincubated for 5 mins followed by NADPH addition and measured after 30 to 60 mins by LC-MS/MS analysis; format: ADME, Microsome
Sequence of Cytochrome P450 2D6 (P10635 whole entry): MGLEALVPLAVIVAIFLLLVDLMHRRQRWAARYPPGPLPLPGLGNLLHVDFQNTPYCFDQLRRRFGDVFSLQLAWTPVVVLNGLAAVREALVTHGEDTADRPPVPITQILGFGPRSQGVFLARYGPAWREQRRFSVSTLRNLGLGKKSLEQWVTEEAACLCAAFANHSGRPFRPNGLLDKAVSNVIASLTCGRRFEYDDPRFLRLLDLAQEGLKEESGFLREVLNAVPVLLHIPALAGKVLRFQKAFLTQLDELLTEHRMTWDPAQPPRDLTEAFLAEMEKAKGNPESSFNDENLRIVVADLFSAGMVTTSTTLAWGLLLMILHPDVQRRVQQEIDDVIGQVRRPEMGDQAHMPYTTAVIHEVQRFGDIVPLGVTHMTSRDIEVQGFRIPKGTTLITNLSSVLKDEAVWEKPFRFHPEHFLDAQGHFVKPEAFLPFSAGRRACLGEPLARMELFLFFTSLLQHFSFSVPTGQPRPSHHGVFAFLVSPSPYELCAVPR

HEK293T [27] = assay: Inhibition of HA-NLRP3/FLAG tagged NEK7 interaction (unknown origin) transfected in HEK293T cells at 1 uM incubated for 24 hrs by Western blot analysis; format: cell-based; details: Homo sapiens

inhibition [2]: < 50%
inhibition [3]: < 50%
IC50 (Cytochrome P450 2C9): 5.8 µM
inhibition [7]: < 50%
inhibition [8]: < 50%
Activity [9]: < 50%
Activity [11]: < 50%
half-life [12]: 3.04 h
Activity [13]: < 50%
AUC(0-t) at 24 h [15]: 16.8 ng·h/mL
inhibition [16]: < 50%
inhibition [18]: < 50%
Activity [19]: < 50%
inhibition [21]: inactive
concentration at 8 h [22]: 1.52 ng/mL
IC50 (Cytochrome P450 1A2): > 100 µM
concentration at 2 h [24]: 4610 ng/g
IC50 (Cytochrome P450 2D6): > 100 µM
SMILES: C=C1C(=O)O[C@@H]2C[C@@]3(C)CC[C@@H](OC(=O)c4cnc(Cl)cc4Cl)C(=C)[C@@H]3C[C@H]12
Activity [1]: Non-Toxic
Activity (THP-1 [4]): inactive
inhibition (THP-1 [5]): Active
Activity (Mus musculus [6]): Active
Activity (Mus musculus [10]): Active
inhibition (BMDM [14]): Active
inhibition (HEK293T [17]): inactive
inhibition (BMDM [20]): Active
IC50 [23]: 10.6 µM
Activity (THP-1 [25]): Active
Activity (Mus musculus [26]): Active
inhibition (HEK293T [27]): Active
